Source: patent US20240366581A1 (Hoffmann-La Roche Inc., priority 2022, published 2024)
Structures can show the parent of a compound that is named as a salt.

Key:
Assay type in all cases: biochemical
SIK1 = SIK1 (Homo sapiens (Human), UniProt P57059); assay: SIK1 enzymatic activity assay, RapidFire mass spectrometry (CHK-peptide phosphorylation); conditions: 5 nM SIK1, CHK-peptide, ATP, 30 min pre-incubation, 45 min reaction, RapidFire MS; read-out: SIK1 RF IC50
Experimental: (§1) In the presence of SIK2 (resp. SIK1 or SIK3) and ATP the CHK-peptide ([…] with C-terminal arginine amide modification) were phosphorylated at one of the four feasible serine's. Only one phosphorylation is observed under the assay conditions. 60 nl of each compound dilution series (12 point; dilution factor 3, generally 30 μM to 170 pM) in DMSO were transferred by acoustic dispensing to the assay plate and 30 min pre-incubated (ambient temperature) after the addition of 5 μl SIK1 (5 nM) resp. 5 μl SIK2 (0.5 nM) or 7 μl SIK3 (1.5 nM) in assay-buffer (12.5 mM HEPES (pH 7.0), 10 mM magnesium acetate, 0.005% BSA). 10 μM CHK-peptide solution and 5 μl 100 μM ATP for SIK1 & SIK2 resp. 3 μl for SIK3 in assay-buffer were added and incubated ambient for 45 min. 40 μl 0.125% formic acid in water were added to quench the reaction. RapidFire (RF) Mass Spectrometry was utilized for data generation as described below. The multiple charged species (3-5 charges) for the phosphorylated and non-phosphorylated form measured by MRM (Multiple Reaction Monitoring; API5000 or 6500+) or EIC (Extracted Ion Current; QToF) were summed up and the ratio calculated (sum phosphorylated species/sum all species) for data evaluation. Normalization was performed by Genedata software based on the non-inhibition control DMSO and the commercially available SIK inhibitor @ 1 μM YKL-05-099 (CAS number 1936529-65-5). The results of the assay are expressed in half-maximal inhibitory concentrations (IC50s) and are summarized below in Table 1.
(§2) Samples were aspirated by vacuum for max. 600 ms and loaded to C4-cartridge (Agilent; #G9203A) for 3000 ms@1.5 ml/min with 0.1% formic acid in water. Afterwards samples were transferred to the API5000 (API6500+) or QToF mass spectrometer for 4000 ms@1.25 ml/min with 90% acetonitrile; 10% water; 0.007% TFA; 0.093 formic acid. The cartridge was reconditioned for additional 500 ms with 0.1% formic acid in water
(§3) All MS analyses using the following MS-setup in MRM mode: Electrospray positive; Ion Spray Voltage: 4000V; Temperature: 550° C.; Collision Gas: 5; Curtain Gas: 15; Gas1: 40; Gas 2: 42; EP: 10
(§4) All MS analyses using the following MS-setup in Mode MS: Dual AJS Electrospray positive; VCap: 3000V; Drying & Sheath gas: 340° C.@81/min; Nebulizer: 60 psig; Nozzle Voltage: 2000V; Fragmentor: 130V; Skimmer: 35V; Oct1 RF Vpp: 700V; Ref masses on@5spectra/s

SIK3 = SIK3 (Homo sapiens (Human), UniProt Q9Y2K2); assay: SIK3 enzymatic activity assay, RapidFire mass spectrometry (CHK-peptide phosphorylation); conditions: 1.5 nM SIK3, CHK-peptide, ATP, 30 min pre-incubation, 45 min reaction, RapidFire MS; read-out: SIK3 RF IC50
Sequence of SIK3 (Q9Y2K2 whole entry): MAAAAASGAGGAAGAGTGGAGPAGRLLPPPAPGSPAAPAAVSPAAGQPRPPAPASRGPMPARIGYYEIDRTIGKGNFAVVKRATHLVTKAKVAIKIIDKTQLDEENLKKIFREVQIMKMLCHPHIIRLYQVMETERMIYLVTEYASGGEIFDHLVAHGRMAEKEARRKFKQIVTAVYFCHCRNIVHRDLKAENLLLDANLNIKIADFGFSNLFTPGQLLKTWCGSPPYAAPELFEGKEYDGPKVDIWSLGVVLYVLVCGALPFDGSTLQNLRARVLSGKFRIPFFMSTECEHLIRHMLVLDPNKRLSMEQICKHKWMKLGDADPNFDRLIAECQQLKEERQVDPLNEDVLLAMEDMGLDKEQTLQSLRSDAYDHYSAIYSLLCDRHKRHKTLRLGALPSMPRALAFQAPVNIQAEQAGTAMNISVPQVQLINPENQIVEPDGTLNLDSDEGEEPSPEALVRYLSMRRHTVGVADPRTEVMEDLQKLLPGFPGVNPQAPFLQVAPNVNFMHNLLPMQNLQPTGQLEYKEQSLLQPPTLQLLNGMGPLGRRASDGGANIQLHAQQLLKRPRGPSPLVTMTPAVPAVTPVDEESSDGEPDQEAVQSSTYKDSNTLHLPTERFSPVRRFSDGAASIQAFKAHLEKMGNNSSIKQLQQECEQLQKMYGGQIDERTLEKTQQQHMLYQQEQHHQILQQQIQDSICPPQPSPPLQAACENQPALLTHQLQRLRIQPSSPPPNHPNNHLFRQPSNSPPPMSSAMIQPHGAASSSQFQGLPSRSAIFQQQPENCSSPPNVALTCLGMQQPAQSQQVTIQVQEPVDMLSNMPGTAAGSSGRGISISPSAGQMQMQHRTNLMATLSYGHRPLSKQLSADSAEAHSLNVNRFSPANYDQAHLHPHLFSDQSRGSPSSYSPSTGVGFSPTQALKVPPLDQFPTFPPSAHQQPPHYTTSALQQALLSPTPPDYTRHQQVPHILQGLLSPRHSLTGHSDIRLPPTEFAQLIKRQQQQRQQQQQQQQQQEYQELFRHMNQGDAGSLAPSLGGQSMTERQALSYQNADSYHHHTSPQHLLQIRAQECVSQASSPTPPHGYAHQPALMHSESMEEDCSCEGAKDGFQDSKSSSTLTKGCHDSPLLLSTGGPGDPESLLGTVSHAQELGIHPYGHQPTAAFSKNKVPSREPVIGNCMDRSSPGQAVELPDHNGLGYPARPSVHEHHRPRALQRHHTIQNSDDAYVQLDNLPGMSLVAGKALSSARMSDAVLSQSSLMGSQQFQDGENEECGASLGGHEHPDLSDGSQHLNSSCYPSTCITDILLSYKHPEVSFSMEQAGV
Experimental: as §1, §2, §3, §4

SIK2 = SIK2 (Homo sapiens (Human), UniProt Q9H0K1); assay: SIK2 enzymatic activity assay, RapidFire mass spectrometry (CHK-peptide phosphorylation); conditions: 0.5 nM SIK2, CHK-peptide, ATP, 30 min pre-incubation, 45 min reaction, RapidFire MS; read-out: SIK2 RF IC50
Sequence of SIK2 (Q9H0K1 whole entry): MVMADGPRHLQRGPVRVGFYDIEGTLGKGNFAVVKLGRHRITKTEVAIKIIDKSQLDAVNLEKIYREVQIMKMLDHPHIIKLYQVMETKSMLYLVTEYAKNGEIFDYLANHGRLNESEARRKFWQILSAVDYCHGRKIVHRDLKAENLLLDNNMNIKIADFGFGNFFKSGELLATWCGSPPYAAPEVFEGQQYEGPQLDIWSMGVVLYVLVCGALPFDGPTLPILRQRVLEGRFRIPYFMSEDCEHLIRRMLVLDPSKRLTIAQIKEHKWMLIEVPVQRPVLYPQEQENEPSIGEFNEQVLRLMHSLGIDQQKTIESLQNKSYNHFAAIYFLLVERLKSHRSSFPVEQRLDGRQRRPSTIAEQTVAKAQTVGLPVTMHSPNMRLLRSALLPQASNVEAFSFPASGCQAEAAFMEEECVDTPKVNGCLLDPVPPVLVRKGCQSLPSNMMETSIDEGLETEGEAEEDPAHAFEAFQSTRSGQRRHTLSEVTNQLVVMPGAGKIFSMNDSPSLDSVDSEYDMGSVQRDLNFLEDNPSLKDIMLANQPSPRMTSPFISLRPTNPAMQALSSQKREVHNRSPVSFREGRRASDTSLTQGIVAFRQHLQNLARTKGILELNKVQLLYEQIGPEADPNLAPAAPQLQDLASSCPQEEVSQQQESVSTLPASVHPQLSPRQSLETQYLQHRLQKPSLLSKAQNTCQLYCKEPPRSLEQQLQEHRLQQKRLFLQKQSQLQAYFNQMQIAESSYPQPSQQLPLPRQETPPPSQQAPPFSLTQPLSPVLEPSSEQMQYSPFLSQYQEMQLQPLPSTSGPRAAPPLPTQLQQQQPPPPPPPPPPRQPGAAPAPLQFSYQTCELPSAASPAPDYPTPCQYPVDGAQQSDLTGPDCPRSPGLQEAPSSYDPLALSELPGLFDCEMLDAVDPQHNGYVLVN
Experimental: as §1, §2, §3, §4

Sequence of SIK1 (P57059 whole entry): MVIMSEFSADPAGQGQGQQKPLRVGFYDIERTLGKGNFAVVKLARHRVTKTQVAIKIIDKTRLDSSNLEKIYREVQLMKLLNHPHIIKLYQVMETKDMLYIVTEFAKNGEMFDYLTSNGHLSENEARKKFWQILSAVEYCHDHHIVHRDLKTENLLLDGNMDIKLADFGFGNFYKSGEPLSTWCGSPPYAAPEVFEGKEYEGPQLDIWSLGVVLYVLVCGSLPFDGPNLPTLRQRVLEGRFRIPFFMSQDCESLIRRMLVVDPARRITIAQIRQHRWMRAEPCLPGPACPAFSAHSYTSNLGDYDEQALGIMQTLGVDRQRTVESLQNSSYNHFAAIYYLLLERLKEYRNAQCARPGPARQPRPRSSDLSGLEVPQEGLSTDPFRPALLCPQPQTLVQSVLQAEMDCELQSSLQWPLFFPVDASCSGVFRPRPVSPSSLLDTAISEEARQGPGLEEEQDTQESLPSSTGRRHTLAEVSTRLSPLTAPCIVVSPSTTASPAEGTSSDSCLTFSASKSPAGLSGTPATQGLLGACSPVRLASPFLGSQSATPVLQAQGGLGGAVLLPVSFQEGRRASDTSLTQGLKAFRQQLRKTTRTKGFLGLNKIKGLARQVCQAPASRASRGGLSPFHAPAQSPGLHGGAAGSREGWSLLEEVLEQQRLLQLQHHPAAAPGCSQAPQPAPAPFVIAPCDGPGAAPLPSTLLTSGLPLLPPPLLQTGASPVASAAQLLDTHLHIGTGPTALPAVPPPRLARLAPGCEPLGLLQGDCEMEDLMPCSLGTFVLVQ

| IC50 (SIK1) [nM] | IC50 (SIK3) [nM] | IC50 (SIK2) [nM] | Compound |
| --- | --- | --- | --- |
| 15.1 | 57.2 | 14.2 | COc1cc2ncn(-c3ccc(C(N)=O)c(Oc4ccccc4Cl)n3)c2cc1OC [Example 1, 2-(2-chlorophenoxy)-6-(5,6-dimethoxybenzimidazol-1-yl)pyridine-3-carboxamide] |
| 14 | 97.2 | 3.8 | COc1cc2ncn(-c3ccc(C(N)=O)c(Nc4ccccc4)n3)c2cc1OC [Example 2, 6-(5,6-Dimethoxy-benzoimidazol-1-yl)-2-phenylamino-nicotinamide] |
| 15.5 | 156 | 7.8 | COc1cc2ncn(-c3ccc(C(N)=O)c(NCc4ccccc4)n3)c2cc1OC [Example 3, 2-(benzylamino)-6-(5,6-dimethoxybenzimidazol-1-yl)pyridine-3-carboxamide] |
| 3.4 | 114 | 3.3 | COc1cc2ncn(-c3ccc(C(N)=O)c(NC(CCN)c4ccsc4)n3)c2cc1OC (stereo not shown) [Example 4, 2-[[3-amino-1-(3-thienyl)propyl]amino]-6-(5,6-dimethoxybenzimidazol-1-yl)pyridine-3-carboxamide hydrochloride] |
| 7.4 | 331 | 9.5 | COc1cc2ncn(-c3ccc(C(N)=O)c(NC(CCN)c4ccccc4)n3)c2cc1OC (stereo not shown) [Example 5, 2-[(3-amino-1-phenyl-propyl)amino]-6-(5,6-dimethoxybenzimidazol-1-yl)pyridine-3-carboxamide hydrochloride] |
| 2.8 | 39.9 | 2.5 | COc1cc2ncn(-c3ccc(C(N)=O)c(NCCc4ccccc4)n3)c2cc1OC [Example 6, 6-(5,6-dimethoxybenzimidazol-1-yl)-2-(2-phenylethylamino)pyridine-3-carboxamide] |
| 29.7 | 188 | 18.2 | COc1cc2ncn(-c3ccc(C(N)=O)c(NCc4cccs4)n3)c2cc1OC [Example 7, 6-(5,6-dimethoxybenzimidazol-1-yl)-2-(2-thienylmethylamino)pyridine-3-carboxamide] |
| 27.4 | 260 | 16.2 | COc1cc2ncn(-c3ccc(C(N)=O)c(NCc4ccc(Cl)cc4)n3)c2cc1OC [Example 8, 2-[(4-chlorophenyl)methylamino]-6-(5,6-dimethoxybenzimidazol-1-yl)pyridine-3-carboxamide] |
| 6.2 | 146 | 6.5 | COc1cc2ncn(-c3ccc(C(N)=O)c(NCCc4cccc(Cl)c4)n3)c2cc1OC [Example 9, 2-[2-(3-chlorophenyl)ethylamino]-6-(5,6-dimethoxybenzimidazol-1-yl)pyridine-3-carboxamide] |
| 1.7 | 44.9 | 1.2 | COc1cc2ncn(-c3ccc(C(N)=O)c(NC(CN)c4cccc(Cl)c4)n3)c2cc1OC (stereo not shown) [Example 10, 2-[[2-amino-1-(3-chlorophenyl)ethyl]amino]-6-(5,6-dimethoxybenzimidazol-1-yl)pyridine-3-carboxamide hydrochloride] |
| 6.3 | 206 | 15.8 | COc1cc2ncn(-c3ccc(C(N)=O)c(NC(CCN)c4cccc(Cl)c4)n3)c2cc1OC (stereo not shown) [Example 11, 2-[[3-amino-1-(3-chlorophenyl)propyl]amino]-6-(5,6-dimethoxybenzimidazol-1-yl)pyridine-3-carboxamide hydrochloride] |
| 1.7 | 69.2 | 2.2 | COc1cc2ncn(-c3ccc(C(N)=O)c(NC(CN)c4ccsc4)n3)c2cc1OC (stereo not shown) [Example 12, 2-[[2-amino-1-(3-thienyl)ethyl]amino]-6-(5,6-dimethoxybenzimidazol-1-yl)pyridine-3-carboxamide hydrochloride] |
| 22500 | > 30000 | 995 | COC(=O)c1ccc(-n2cnc3cc(OC)c(OC)cc32)nc1-c1cccc(Cl)c1 [Example 13, Methyl 2-(3-chlorophenyl)-6-(5,6-dimethoxy-1H-benzo[d]imidazol-1-yl)nicotinate] |
| 7480 | 18000 | 5150 | COC(=O)c1ccc(-n2cnc3cc(OC)c(OC)cc32)nc1N1CCCCC1=O [Example 14, Methyl 6-(5,6-dimethoxy-1H-benzo[d]imidazol-1-yl)-2-(2-oxopiperidin-1-yl)nicotinate] |
| 1570 | 4000 | 828 | COC(=O)c1ccc(-n2cnc3cc(OC)c(OC)cc32)nc1N1CCCC1=O [Example 15, Methyl 6-(5,6-dimethoxy-1H-benzo[d]imidazol-1-yl)-2-(2-oxopyrrolidin-1-yl)nicotinate] |
| 260 | 1670 | 241 | COc1cc2ncn(-c3ccc(C(=O)O)c(N4CCCCC4)n3)c2cc1OC [Example 16, 6-(5,6-Dimethoxy-1H-benzo[d]imidazol-1-yl)-2-(piperidin-1-yl)nicotinic acid] |
| 14900 | 21600 | 5070 | CCNC(=O)c1ccc(-n2cnc3cc(OC)c(OC)cc32)nc1-c1cccc(C#N)c1 [Example 17, 2-(3-cyanophenyl)-6-(5,6-dimethoxybenzimidazol-1-yl)-N-ethyl-pyridine-3-carboxamide] |
| 9470 | 13500 | 5770 | CNC(=O)c1ccc(-n2cnc3cc(OC)c(OC)cc32)nc1-c1cccc(C#N)c1 [Example 18, 2-(3-Cyanophenyl)-6-(5,6-dimethoxybenzimidazol-1-yl)-N-methyl-pyridine-3-carboxamide; Formic Acid] |
| 1770 | > 10000 | 5740 | COc1cc2ncn(-c3ccc(C(=O)NC4CC4)c(-c4cccc(C#N)c4)n3)c2cc1OC [Example 19, 2-(3-Cyanophenyl)-N-cyclopropyl-6-(5,6-dimethoxybenzimidazol-1-yl)pyridine-3-carboxamide] |
| 12100 | > 30000 | 6240 | COc1cc2ncn(-c3ccc(C(=O)NCC(F)(F)F)c(-c4cccc(C#N)c4)n3)c2cc1OC [Example 20, 2-(3-Cyanophenyl)-6-(5,6-dimethoxybenzimidazol-1-yl)-N-(2,2,2-trifluoroethyl)pyridine-3-carboxamide] |
| 659 | 3500 | 878 | COc1cc2ncn(-c3ccc(C(N)=O)c(-c4cccc(C#N)c4)n3)c2cc1OC [Example 21, 2-(3-Cyanophenyl)-6-(5,6-dimethoxybenzimidazol-1-yl)pyridine-3-carboxamide] |
| 19800 | 12200 | 7410 | Cc1cc(C#N)nn1-c1nc(-n2cnc3cc(OCCN4CCOCC4)ccc32)ccc1C(N)=O [Example 22, 2-(3-Cyano-5-methyl-pyrazol-1-yl)-6-[5-(2-morpholinoethoxy)benzimidazol-1-yl]pyridine-3-carboxamide] |
| 361 | 4.9 | 15.2 | Cc1ccc(Nc2ccc3c(c2)ncn3-c2ccc(C(N)=O)c(OC(C)C(F)F)n2)nn1 (stereo not shown) [Example 23, 2-(2,2-Difluoro-1-methyl-ethoxy)-6-[5-[(6-methylpyridazin-3-yl)amino]benzimidazol-1-yl]pyridine-3-carboxamide] |
| 1460 |  | 86.7 | COc1cc(-n2cnc3cc(Nc4ccc(C)nn4)ccc32)nc(OC)c1C(C)=O [Example 29, 1-[2,4-dimethoxy-6-[5-[(6-methylpyridazin-3-yl)amino]benzimidazol-1-yl]-3-pyridyl]ethanone] |
| 547 |  | 816 | CC(=O)c1ccc(-n2cnc3cc4c(cc32)NCC4)nc1-n1nc(C#N)cc1C [Example 30, 1-[3-acetyl-6-(6,7-dihydro-5H-pyrrolo[3,2-f]benzimidazol-3-yl)-2-pyridyl]-5-methyl-pyrazole-3-carbonitrile] |

| Compound | IC50 (SIK1) [nM] | IC50 (SIK3) [nM] | IC50 (SIK2) [nM] |
| --- | --- | --- | --- |
| Cc1ccc(Nc2ccc3ncn(-c4ccc(C(N)=O)c(OC(C)C(F)F)n4)c3c2)nn1 (stereo not shown) [Example 24] | 605 | 95.7 | 206 |
